Results published in article PMC4506568, “Targeting a Dynamic Protein–Protein Interaction: Fragment Screening against the Malaria Myosin A Motor Complex” (Chemmedchem, 2014).

Target: T1, PfMTIPΔ60 (Plasmodium falciparum myosin A tail domain interacting protein, residues 61-204) (Plasmodium falciparum, UniProt Q8I4W8)
T1 construct: gene MTIP; residues 61-204 (N- and C-terminal domains, disordered N-terminal extension removed), N-terminal His tag kept, recombinant as previously described; 15N-labelled for NMR; free of myoA tail
T1 sequence (Q8I4W8 entry or part of it, stated change not applied): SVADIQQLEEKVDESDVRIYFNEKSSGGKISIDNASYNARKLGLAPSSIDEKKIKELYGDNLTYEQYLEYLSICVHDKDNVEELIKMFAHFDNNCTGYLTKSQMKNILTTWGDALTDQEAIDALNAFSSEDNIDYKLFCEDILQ
Assay: 1H, […]-HSQC NMR titration
Format: binding

Compound: CN(C)Cc1ccc(CSCCN)o1 [compound 8, fragment 8]
- Kd: 22.5 ± 2.7 mM
